Test results reported in paper PMC4005910 (Cell Reports, 2014).

Experiments:
[1] = system: cytoplasmatic peptidase; settings: half-life; ref Lazaro et al., 2011; cited from earlier work
[2] = Solubility of peptide for TAP binding test; assay type: physicochemical; settings: could not be tested for TAP binding

Row | Sequence | cytoplasmatic peptidase stability, t1/2 [1] [s] | solubility [2]
1 | KAFSPEVIPMF [KF11] | 13 | –
2 | GTTSTLQEQIAW [GW12] | – | insoluble
